Target: Histone deacetylase 2 (Homo sapiens, UniProt Q92769)
Assay: Reporter Displacement Assay: HDAC2 containing a C-terminal HIS-Tag (Proteros) and fluorescently-labeled anti-HIS-antibody are diluted in one vial in assay buffer 50 mM Tris, pH 8.0, 1 mM DTT, 150 mM NaCl, and 0.01% Tween20. Components are pre-incubated for 30 min, then a small volume of reporter probe (Proteros) is added from a highly concentrated stock and incubation is continued for another 30 min. Final concentrations after adding the reporter probe amount to 20 nM HDAC2, 4 nM antibody, and 180 nM probe.

Sequence of Histone deacetylase 2 (Q92769 whole entry): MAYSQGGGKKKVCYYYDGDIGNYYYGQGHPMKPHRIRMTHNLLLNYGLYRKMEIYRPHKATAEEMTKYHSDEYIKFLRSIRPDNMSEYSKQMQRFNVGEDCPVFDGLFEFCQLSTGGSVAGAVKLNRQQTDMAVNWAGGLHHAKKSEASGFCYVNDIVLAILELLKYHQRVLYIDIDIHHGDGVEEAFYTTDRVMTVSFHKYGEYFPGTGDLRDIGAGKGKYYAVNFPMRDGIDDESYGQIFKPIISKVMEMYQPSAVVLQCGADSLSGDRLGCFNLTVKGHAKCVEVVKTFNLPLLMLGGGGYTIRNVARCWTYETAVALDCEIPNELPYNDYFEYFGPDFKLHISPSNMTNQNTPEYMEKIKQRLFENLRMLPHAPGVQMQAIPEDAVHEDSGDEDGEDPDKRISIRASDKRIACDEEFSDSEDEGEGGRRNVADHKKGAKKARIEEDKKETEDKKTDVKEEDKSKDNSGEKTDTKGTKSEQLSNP

- Kd: < 100 nM
SMILES: Nc1ccc(-c2ccncc2)cc1NC(=O)N1Cc2cncnc2C1

Reference: ChEMBL document CHEMBL5727311, “Heterobicyclic N-aminophenyl-amides as inhibitors of histone deacetylase” (2019)
